Assays:
Kv 1.5-potassium channel = biological target: T1, Kv 1.5-potassium channel (Homo sapiens, UniProt P22460); assay: In-vitro Kv 1.5-potassium channel-blocking effect (Rb+ outflow from CHO cells, atomic absorption spectroscopy); format: cell-based; details: CHO cells stably expressing Kv 1.5, read-out: IC50 (Kv1.5-potassium channel-blocking effect, concentration of half-maximum inhibition)
T1 construct: expressed in transfected cells
Description: 1. In-Vitro Investigation of the Kv 1.5-Potassium Channel-Blocking Effect of the Substances
In this test model, a cell line of egg cells of the Chinese hamster (=“Chinese hamster oocytes”, “CHO”) is used which originates from a single cell and stably expresses the Kv 1.5-channel. By incubation overnight in a nutrient medium containing RbCl or a “loading buffer” (all values in mM: RbCl 5, NaCl 140, CaCl2 2, MgSO4 1, HEPES buffer 10, glucose 5) the aforementioned oocytes are loaded with Rb^+ under the influence of Na^+/K^+-ATPase. Thereafter, a portion of the oocytes is incubated as a reference standard in the absence of an inhibitor, while another portion of the oocytes is incubated in the presence of the respective inhibitory test substance of Formula I. Then the oocytes are depolarized by increasing the extracellular potassium-ion concentration, which causes the Kv 1.5-potassium channels of the oocytes to open. In the absence of an inhibitor, the Rb^+ ions flow through the Kv 1.5-potassium channels into the liquid surrounding them. In the presence of an inhibitory test substance of Formula I, on the other hand, the Rb^+ ions remain locked within the oocytes. The extent of the Kv 1.5-potassium channel-blocking effect of the test substances of Formula I is determined by measuring the Rb^+ ion concentration in the liquid surrounding them by means of atomic absorption spectroscopy against a reference standard.
Chinese hamster oocytes (see above) were cultivated in a known, RbCl-containing nutrient medium for CHO-cells and placed in the sample wells of a 96-sample capacity sample plate (“96 well plate”). The oocytes were allowed to grow overnight in order to obtain monolayers of the oocytes. Then the nutrient medium was pipetted off, and each sample well was washed three times with 100 μl portions of a preincubation buffer of low potassium-ion concentration (all values in mM: KCl 5, NaCl 140, CaCl2 2, MgSO4 1, HEPES buffer 10, glucose 5). Then 50 μl of a solution of the respective test substance (stock solution in DMSO, dilution with preincubation buffer, final concentration in the test batch 10 μM) or of the solvent (as negative controls) was added to each sample well and incubated for 10 min. in each case at room temperature. Then 50 μl of a stimulation buffer with elevated potassium-ion concentration (KCl 145 mM, NaCl 0 mM, otherwise as preincubation buffer) was added to each sample well and the samples were then incubated for a further 10 min. at room temperature. In each case, 80 μl of the liquid surrounding the oocytes from each sample well was then transferred separately to the sample wells of an analysis sample plate, and the Rb^+ ion concentration in the liquids was determined by atomic absorption spectroscopy. The test substances were each double-tested. The signal section which represented the Kv 1.5 component of the Rb^+ outflow was defined by using as positive control the known potassium channel blocker 4-AP in a high concentration (100×IC50 for the Kv 1.5 channel). This made it possible to determine which portion of the Rb^+ outflow was dependent on the influence of the 4-AP and therefore is to be assigned to the Kv 1.5 channel. For the substances which in the concentration of 10 μM used led to a reduction in the Rb^+ outflow of at least 50%, additional tests were performed with lower concentrations of the test substances in order to be able to determine the half-maximum effective concentration. In each case the concentration of half-maximum inhibition of the test substances of Formula I (IC50) was given as characteristic variable.

[1] = system: hearts of anaesthetised cats; assay: Atrial and ventricular fibrillation threshold in anaesthetised cats in vivo; set-up: species or system cat; details: anaesthetized cats, dose 30 μmol/kg i.v.; for AFT (increase in the atrial fibrillation threshold) / VFT (increase in the ventricular fibrillation threshold): percent of value before administration
Source text: 5. Investigation of the Functional Effectiveness of the Substances on the Hearts of Anaesthetised Cats in Vivo
In the test model shown below, it was shown that the substances according to the invention at most have a marked atrial-selective effect on the heart. After administration of the substances according to the invention, a significant increase in the atrial fibrillation threshold—i.e. the current intensity at which atrial fibrillation occurs—was observed. At the same time, on the other hand, the ventricular fibrillation threshold is influenced only minimally.
Living cats were anaesthetised with chloralose/urethane (50/300 mg/kg i.v.) and were ventilated with ambient air. Then, following thoracotomy, stimulating electrodes were attached to the right atrium and the ventricle. The atrial and ventricular fibrillation threshold was determined in known manner by administration of rectangular pulses of increasing current intensity until atrial or ventricular fibrillation occurred (for performance see in detail: Br. J. Pharmac. 17 (1961) 167; Hdb. exp. Pharmacol. XVI/3 (1975) 131; Pharmacol. Res. 25 Suppl. 2 (1992) 156). The test substances of Formula I were dissolved in propylene glycol (80%) and administered intravenously in increasing doses (5-30 μmol/kg). Atrial and ventricular fibrillation thresholds were then determined at 5-minute intervals in known manner after the addition of the respective dose. The increase in the respective fibrillation threshold due to the substances investigated was expressed in percent of the value before administration of substance, i.e. a doubling of the fibrillation threshold corresponds to an increase of 100%.

Kv 1.3-potassium channel = biological target: T2, Kv 1.3-potassium channel (Homo sapiens, UniProt P22001); assay: In-vitro Kv 1.3-potassium channel-blocking effect (membrane potential-sensitive fluorescent dye in transfected CHO cells); format: cell-based; details: 10 μM test substance; CHO cells transfected with Kv 1.3; relative to reference margatoxin
T2 construct: expressed in transfected cells; host or cells: CHO cells, stably transfected with the Kv 1.3 plasmid using DMRIE-C
Source text: 2. In-Vitro Investigation of the Kv 1.3-Potassium Channel-Blocking Effect of the Substances
In this test model, known oocytes of the Chinese hamster (═CHO) are used which are stably transfected with the Kv 1.3-potassium channel. The blockade of the cell-inherent Kv 1.3-potassium channel activity in the transfected cells is accompanied by a positive shift in the membrane potential from approx. −40 mV to −30 mV, whereas in the wild-type CHO cells investigated in parallel no significant shift in the membrane potential is triggered. A change in the membrane potential is thus connected to the reduction in the Kv 1.3-potassium channel activity. By blocking the Kv 1.3-potassium channels e.g. with substances of Formula I and the resulting change in the membrane potential, an accumulation of a membrane potential-sensitive fluorescent dye in intracellular compartments of the oocytes and ultimately increasing fluorescence occurs. The change in the membrane potential of the oocytes is therefore measured indirectly via the increase in fluorescence of the membrane potential-senstive dyes.
The cells were transfected with the Kv 1.3 plasmid in known manner with a commercially obtainable transfection reagent (DMRIE-C from Gibco BRL, Germany). The successful transfection was verified by immunofluorescence and by “patch-clamp” investigations of the potassium ion current. The fluorescence measurements were performed on a Tecan Safire fluorescence reader from Tecan, Germany. In each case, the increase in the fluorescent intensity caused by the blockade of the Kv 1.3-potassium channels in the oocytes with substances of Formula I in a concentration of 10 μM was determined as characteristic variable. The increase in the fluorescent intensity was given in each case in percent (%) compared with an increase in the fluorescent intensity caused by the reference substance margatoxin. Margatoxin is known as a selective Kv 1.3-potassium channel blocker (see e.g. M. Garcia-Calvo et al., J. Biol. Chem. 268 (1993) 18866-18874).

T1 sequence (P22460 whole entry): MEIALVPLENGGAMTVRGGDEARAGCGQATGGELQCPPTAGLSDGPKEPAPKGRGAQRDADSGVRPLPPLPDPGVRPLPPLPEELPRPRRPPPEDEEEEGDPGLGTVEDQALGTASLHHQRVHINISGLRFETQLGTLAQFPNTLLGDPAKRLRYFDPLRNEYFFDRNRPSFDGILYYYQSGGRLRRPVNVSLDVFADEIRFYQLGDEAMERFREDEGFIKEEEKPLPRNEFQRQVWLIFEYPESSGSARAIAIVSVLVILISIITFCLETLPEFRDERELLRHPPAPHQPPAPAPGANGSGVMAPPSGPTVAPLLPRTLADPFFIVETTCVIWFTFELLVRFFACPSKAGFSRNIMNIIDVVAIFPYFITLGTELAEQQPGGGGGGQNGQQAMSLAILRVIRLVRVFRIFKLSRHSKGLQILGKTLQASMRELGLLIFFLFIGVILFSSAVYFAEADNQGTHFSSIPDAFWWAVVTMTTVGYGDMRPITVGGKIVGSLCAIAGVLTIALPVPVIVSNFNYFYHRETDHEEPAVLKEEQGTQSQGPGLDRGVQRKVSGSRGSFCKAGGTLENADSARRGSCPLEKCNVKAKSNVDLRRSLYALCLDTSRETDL
T2 sequence (P22001 whole entry): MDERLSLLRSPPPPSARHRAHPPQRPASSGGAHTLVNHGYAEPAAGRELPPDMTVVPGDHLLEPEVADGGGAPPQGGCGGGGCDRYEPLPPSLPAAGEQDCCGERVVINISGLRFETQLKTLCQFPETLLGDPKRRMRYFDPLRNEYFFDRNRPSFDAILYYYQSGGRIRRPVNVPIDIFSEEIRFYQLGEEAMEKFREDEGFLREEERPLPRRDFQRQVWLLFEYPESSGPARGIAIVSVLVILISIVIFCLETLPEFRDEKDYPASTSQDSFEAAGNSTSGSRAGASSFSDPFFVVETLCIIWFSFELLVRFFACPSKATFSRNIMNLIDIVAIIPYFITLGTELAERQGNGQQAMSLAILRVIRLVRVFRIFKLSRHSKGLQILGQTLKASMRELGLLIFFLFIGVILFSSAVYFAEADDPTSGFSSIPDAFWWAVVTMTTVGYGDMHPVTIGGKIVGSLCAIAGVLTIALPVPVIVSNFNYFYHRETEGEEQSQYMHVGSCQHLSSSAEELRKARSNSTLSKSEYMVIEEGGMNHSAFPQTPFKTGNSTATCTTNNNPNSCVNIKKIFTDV

SMILES: CCc1ccc(S(=O)(=O)N(CC(C)(C)C)C2c3cc(CC(=O)NCCc4ccccc4)ccc3OC(C)(C)C2O)cc1 (stereo not drawn) [Example 10]
- IC50 (Kv 1.5-potassium channel): 1.6 µM
- Selectivity factor (AFT:VFT) [1]: 13
- AFT (increase in the atrial fibrillation threshold) [1]: 241%
- VFT (increase in the ventricular fibrillation threshold) [1]: 19%
- Increase in the fluorescent intensity (% margatoxin) (Kv 1.3-potassium channel): 82 % margatoxin

SMILES: CCc1ccc(S(=O)(=O)N(CC(C)(C)C)[C@H]2c3cc(CC(=O)NCc4ccccc4)ccc3OC(C)(C)[C@@H]2O)cc1 [Example 8]
- IC50 (Kv 1.5-potassium channel): 0.5 µM

SMILES: CCc1ccc(S(=O)(=O)N[C@@H]2c3cc(CC(=O)N[C@H]4CCCc5ccccc54)ccc3OC(C)(C)[C@H]2O)cc1 [Example 9]
- IC50 (Kv 1.5-potassium channel): 2.9 µM
- Selectivity factor (AFT:VFT) [1]: 7
- AFT (increase in the atrial fibrillation threshold) [1]: 213%
- VFT (increase in the ventricular fibrillation threshold) [1]: 29%
- Increase in the fluorescent intensity (% margatoxin) (Kv 1.3-potassium channel): 107 % margatoxin

SMILES: CCc1ccc(S(=O)(=O)N[C@@H]2c3cc(CC(=O)N[C@@H]4CCCc5ccccc54)ccc3OC(C)(C)[C@H]2O)cc1 [Example 2, 2-((3S,4R)-4-{[(4-ethylphenyl)sulfonyl]amino}-3-hydroxy-2,2-dimethyl-3,4-dihydro-2H-chromen-6-yl)-N-[(1R)-1,2,3,4-tetrahydronaphth-1-yl]acetamide]
- IC50 (Kv 1.5-potassium channel): 2 µM
- Selectivity factor (AFT:VFT) [1]: 17
- AFT (increase in the atrial fibrillation threshold) [1]: 261%
- VFT (increase in the ventricular fibrillation threshold) [1]: 15%
- Increase in the fluorescent intensity (% margatoxin) (Kv 1.3-potassium channel): 72 % margatoxin

SMILES: CCc1ccc(S(=O)(=O)N(CC(C)(C)C)C2c3cc(CC(=O)NCc4ccccc4)ccc3OC(C)(C)C2O)cc1 (stereo not drawn) [Example 4, N-benzyl-2-{4-[[(4-ethylphenyl)sulfonyl](neopentyl)amino]-3-hydroxy-2,2-dimethyl-3,4-dihydro-2H-chromen-6-yl}acetamide]
- IC50 (Kv 1.5-potassium channel): 1.6 µM
- Selectivity factor (AFT:VFT) [1]: 12
- AFT (increase in the atrial fibrillation threshold) [1]: 226%
- VFT (increase in the ventricular fibrillation threshold) [1]: 19%

SMILES: CCc1ccc(S(=O)(=O)NC2c3cc(CC(=O)N4CCN(c5ccccc5)CC4)ccc3OC(C)(C)C2O)cc1 (stereo not drawn) [Example 16]
- IC50 (Kv 1.5-potassium channel): 6.3 µM

SMILES: CC1(C)Oc2ccc(CC(=O)NC3CCCc4ccccc43)cc2C(NS(=O)(=O)c2cccc(F)c2)C1O (mixture of isomers) [Example 13]
- IC50 (Kv 1.5-potassium channel): 6.5 µM
- Increase in the fluorescent intensity (% margatoxin) (Kv 1.3-potassium channel): 53 % margatoxin

SMILES: CCc1ccc(S(=O)(=O)N(CC(C)(C)C)[C@@H]2c3cc(CC(=O)NCc4ccccc4)ccc3OC(C)(C)[C@H]2O)cc1 [Example 7]
- IC50 (Kv 1.5-potassium channel): 1.5 µM
